Earlier results, collected in patent US20250235427A1, “5-METHOXY-N,N-[…][…] THE TREATMENT OF SOCIAL/EMOTIONAL […] DETACHMENT” (GH RESEARCH IRELAND LIMITED, priority 2022, published 2025).

Test system: patients with treatment resistant bipolar depression
Conditions: single 0.5·mg·kg^1 infusion; cited from earlier work

Compound: CNC1(c2ccccc2Cl)CCCCC1=O (centres unmarked) [ketamine]
- duration of anti-anhedonic effect: up to 14 days
- time to decrease of anhedonia (effect onset): ≤ 40 min
